{"source": "patent US9890407B2", "about": "“Method for synthesizing cellulose in vitro” (University of Virginia Patent Foundation, priority 2013, dated 2018)", "molecules": {"B1": {"name": "BcsZ: E. coli periplasmic cellulase encoded in cellulose synthase operons (protein, UniProt P37651 22-368, looked up)", "Endoglucanase": "ACTWPAWEQFKKDYISQEGRVIDPSDARKITTSEGQSYGMFSALAANDRAAFDNILDWTQNNLAQGSLKERLPAWLWGKKENSKWEVLDSNSASDGDVWMAWSLLEAGRLWKEQRYTDIGSALLKRIAREEVVTVPGLGSMLLPGKVGFAEDNSWRFNPSYLPPTLAQYFTRFGAPWTTLRETNQRLLLETAPKGFSPDWVRYEKDKGWQLKAEKTLISSYDAIRVYMWVGMMPDSDPQKARMLNRFKPMATFTEKNGYPPEKVDVATGKAQGKGPVGFSAAMLPFLQNRDAQAVQRQRVADNFPGSDAYYNYVLTLFGQGWDQHRFRFSTKGELLPDWGQECANSH"}}, "key": {"Rs BcsA-B complex [1]": {"tested_on": "Rs BcsA-B complex", "experiment": "Cellulose synthase sedimentation assay (3H-labeled water-insoluble cellulose, scintillation counting)", "type": "biochemical, Rhodobacter sphaeroides", "settings": "for divalent cation supporting cellulose synthase activity: 20 mM cation, 45 min 37° C.", "procedure": "(FIG. 4A) Enzyme-coupled cellulose synthesis assays were performed as described in FIG. 3 in the absence or presence of 0.1 mg/ml E. coli BesZ. […] Inset: Radioactive sedimentation assay performed with ND-reconstituted BcsA-B synthesizing cellulose in the absence or presence of BcsZ. […] The obtained product is quantified relative to the polymer formed in the absence of any nucleoside diphosphate.\nFIG. 9A-9B (also referred to as Example 1, Supplementary FIG. 3): Cation selectivity and pH optimum of cellulose synthase. (FIG. 9A) Cellulose synthesis reactions were performed in the presence of 20 mM of the indicated cations or in the absence of any additional divalent cations with and without addition of 20 mM EDTA. The activities are shown relative to the activity in the presence of magnesium. […] All activity assays were performed for 45 min at 37° C. with 1 μM PLs-reconstituted. Rs BcsA-B and by quantifying the accumulation of ^3H-labeled water insoluble cellulose as described.\nFollowing incubation at 37° C. for 45 min, the polymerization reaction was terminated by addition of 2% SDS and the water-insoluble polymer was pelleted by centrifugation at 15,000 rpm at room temperature (RT). The obtained pellet was resuspended in 20 μL 50 mM Tris pH 7.5, 0.1 M NaCl and spotted at the origin of a descending Whatman-2MM chromatography paper, which was developed in an aqueous solution of 60% ethanol. For enzymatic degradation, the pellet was resuspended in 20 μL 50 mM sodium acetate pH 4.5 and 100 mM NaCl and was digested with 0.1 mg/ml of endo-β-1,4- or endo-β-1,3 glucanase from Aspergillus niger (TCI) or Trichoderma sp. (Megazyme), respectively. Following paper chromatography, the high molecular weight polymer retained at the origin was quantified by scintillation counting.\nFollowing synthesis, the reactions were treated as described above."}, "Rs BcsA-B complex [2]": {"tested_on": "Rs BcsA-B complex", "experiment": "Enzyme-coupled (PK/LDH) cellulose synthase activity assay, UDP formation followed via NADH oxidation at 340 nm", "type": "biochemical, Rhodobacter sphaeroides", "settings": "for residual activity with alternative substrate as only carbohydrate source, relative to UDP-Glc: 5 mM substrate, 0.5 μM PL-reconstituted BcsA-B", "procedure": "FIG. 3A-3D (also referred to as Example 1, FIG. 3): Kinetic analysis of cellulose synthesis and stimulation by cyclic-di-GMP. (FIG. 3A) Cellulose synthesis reactions were performed in the presence of IU PK and LDH, 0.5 mM NADH and 1 mM PEP. The LDH-catalyzed oxidation of NADH to NAD^+ was monitored spectrophotometrically at 340 nm. […] Addition of 1 mM UDP to the reaction rapidly depletes NADH by circumventing cellulose synthesis. […] The data were fit to monophasic Michaelis-Menten kinetics. […] All reactions were performed at room temperature with 0.5 μM ND-reconstituted BcsA-B in a total volume of 20 μl.\nThus, the second product of the cellulose synthase reaction is UDP. […] Because PK recognizes UDP but not UMP as substrate (36), the successful coupling of cellulose synthesis with its activity implies the formation of UDP. To ensure that all BcsA-B complexes are accessible to the substrates and can contribute to the observed reaction, the complex was reconstituted into lipid nanodiscs (ND) (FIG. S4), which are edge-stabilized, planar lipid bilayer discs approximately 10 nm in diameter (37). At this size, each ND most likely contains a single BcsA-B complex (38).\n(§1) Pyruvate kinase (PK)—and lactate dehydrogenase (LDH)-coupled activity assays were performed by incubating 0.5 μM cellulose synthase with 1 U PK and 1 U LDH, 0.5 mM NADH, 1 mM phosphoenolpyruvate, and 30 mM MgCl2 in 20 mM Tris pH 7.5, 100 mM NaCl, 5 mM cellobiose and 10% glycerol in a total volume of 20 μL. The cellulose synthase complex was added last to the reaction mix after a pre-incubation for 10 min at RT. The decrease in absorbance at 340 nm was measured in a SpectraMax plate reader in Corning 384 well clear flat bottom assay plates. Control reactions in the absence of cellulose synthase were performed to determine the background NADH oxidation. Data were plotted and analyzed in Origin (5) and fitted to monophasic Michaelis-Menten kinetics as described (3)."}, "[3]": {"target": "T1, Rhodobacter sphaeroides BcsA-B complex (cellulose synthase), wild type, BcsA SEQ ID NO: 1, BcsB SEQ ID NO: 3 (Cereibacter sphaeroides, UniProt Q3J125)", "T1 construct": "pETDuet, E. coli C43; purified, reconstituted in nanodiscs, proteoliposomes or detergent", "T1 sequence (Q3J125 1-788)": "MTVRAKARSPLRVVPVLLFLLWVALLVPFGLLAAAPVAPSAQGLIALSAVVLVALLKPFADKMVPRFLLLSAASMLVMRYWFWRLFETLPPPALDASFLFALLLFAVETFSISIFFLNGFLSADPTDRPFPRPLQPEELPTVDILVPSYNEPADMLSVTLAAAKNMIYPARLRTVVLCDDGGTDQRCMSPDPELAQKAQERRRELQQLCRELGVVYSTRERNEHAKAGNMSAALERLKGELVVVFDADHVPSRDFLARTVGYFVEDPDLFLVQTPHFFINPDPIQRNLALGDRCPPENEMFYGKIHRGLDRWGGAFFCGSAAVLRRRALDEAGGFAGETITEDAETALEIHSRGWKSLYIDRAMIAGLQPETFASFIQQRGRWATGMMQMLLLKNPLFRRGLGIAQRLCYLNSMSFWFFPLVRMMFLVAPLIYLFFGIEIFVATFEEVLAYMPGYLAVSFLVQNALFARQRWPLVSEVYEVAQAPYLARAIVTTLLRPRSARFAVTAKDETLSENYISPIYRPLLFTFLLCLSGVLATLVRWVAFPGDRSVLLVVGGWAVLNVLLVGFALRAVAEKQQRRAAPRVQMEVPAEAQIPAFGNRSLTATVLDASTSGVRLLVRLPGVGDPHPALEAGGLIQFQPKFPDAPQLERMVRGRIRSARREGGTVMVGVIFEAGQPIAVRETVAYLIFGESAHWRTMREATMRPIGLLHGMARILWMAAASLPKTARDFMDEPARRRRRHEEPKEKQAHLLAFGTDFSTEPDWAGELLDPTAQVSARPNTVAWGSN", "T1 sequence (Q3J126 21-725 partner)": "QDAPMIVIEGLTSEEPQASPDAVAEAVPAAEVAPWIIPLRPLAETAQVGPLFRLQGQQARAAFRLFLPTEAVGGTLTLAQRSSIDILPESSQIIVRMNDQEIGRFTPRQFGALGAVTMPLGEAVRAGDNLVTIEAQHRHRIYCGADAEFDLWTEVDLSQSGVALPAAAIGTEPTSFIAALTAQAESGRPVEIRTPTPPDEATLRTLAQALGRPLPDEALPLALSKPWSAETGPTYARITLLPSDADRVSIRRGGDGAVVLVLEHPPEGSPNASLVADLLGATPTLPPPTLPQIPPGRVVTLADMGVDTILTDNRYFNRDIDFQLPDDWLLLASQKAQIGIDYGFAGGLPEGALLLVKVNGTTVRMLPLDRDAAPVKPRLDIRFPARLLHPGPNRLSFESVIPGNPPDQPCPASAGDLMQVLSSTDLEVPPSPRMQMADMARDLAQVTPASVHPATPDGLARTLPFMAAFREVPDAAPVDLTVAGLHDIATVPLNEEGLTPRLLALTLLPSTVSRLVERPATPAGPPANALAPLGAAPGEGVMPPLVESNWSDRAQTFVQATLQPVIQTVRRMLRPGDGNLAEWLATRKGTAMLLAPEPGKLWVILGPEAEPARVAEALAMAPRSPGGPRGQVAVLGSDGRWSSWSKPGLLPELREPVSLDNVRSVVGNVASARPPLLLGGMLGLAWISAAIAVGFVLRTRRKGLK", "experiment": "Inhibition of cellulose synthesis by alternative substrates (enzyme-coupled assay, PLs-reconstituted BcsA-B)", "type": "biochemical", "settings": "1 mM UDP-Glc; for inhibition of polymer synthesis by alternative UDP-sugars: increasing concentrations of UDP-sugar; for reduction of the apparent reaction rate (inhibition): 5 mM alternative UDP-sugar, 90 min, 37° C.", "procedure": "as §1"}, "[4]": {"settings": "0.1 mg/ml E. coli BcsZ, ND-reconstituted BcsA-B"}}}
{"molecule": "[Mn+2]", "note": "[Mn2+]", "values": [{"measurement": "divalent cation supporting cellulose synthase activity", "setting": "Rs BcsA-B complex [1]; 1 μM PL-reconstituted BcsA-B", "value": "approximately equal activity levels"}]}
{"molecule": "O=c1ccn([C@@H]2O[C@H](COP(=O)(O)OP(=O)(O)O)[C@@H](O)[C@H]2O)c(=O)[nH]1", "note": "[UDP, uridine diphosphate]", "values": [{"measurement": "product formed relative to absence of nucleoside diphosphate", "setting": "Rs BcsA-B complex [1]; 0.7 mM UDP, 0.5 mM UDP-Glc, 1 μM PL-reconstituted BcsA-B, 60 min 37° C.", "value": 50, "unit": "%"}, {"measurement": "mode of inhibition of cellulose synthase", "setting": "Rs BcsA-B complex [1]; 0.7 mM UDP, increasing UDP-Glc", "value": "competitive"}]}
{"molecule": "O=c1ccn([C@@H]2O[C@H](COP(=O)(O)OP(=O)(O)O[C@H]3OC[C@H](O)[C@H](O)[C@H]3O)[C@@H](O)[C@H]2O)c(=O)[nH]1", "note": "[UDP-arabinose]", "values": [{"measurement": "residual activity with alternative substrate as only carbohydrate source, relative to UDP-Glc", "setting": "Rs BcsA-B complex [2]", "value": "about 20%"}]}
{"molecule": "[Mg+2]", "note": "[Mg2+]", "values": [{"measurement": "divalent cation supporting cellulose synthase activity", "setting": "Rs BcsA-B complex [1]; 1 μM PL-reconstituted BcsA-B", "value": "approximately equal activity levels"}]}
{"molecule": "O=c1ccn([C@@H]2O[C@H](COP(=O)(O)OP(=O)(O)O[C@H]3OC[C@@H](O)[C@H](O)[C@H]3O)[C@@H](O)[C@H]2O)c(=O)[nH]1", "note": "[UDP-Xyl, UDP-xylose]", "values": [{"measurement": "inhibition of polymer synthesis by alternative UDP-sugars", "setting": "[3]", "value": "strongest inhibitor"}, {"measurement": "reduction of the apparent reaction rate (inhibition)", "setting": "[3]", "value": "about 60%"}]}
{"molecule": "O=c1ccn([C@@H]2O[C@H](COP(=O)(O)OP(=O)(O)O[C@H]3OC[C@@H](O)[C@H](O)[C@H]3O)[C@@H](O)[C@H]2O)c(=O)[nH]1", "note": "[UDP-xylose]", "values": [{"measurement": "residual activity with alternative substrate as only carbohydrate source, relative to UDP-Glc", "setting": "Rs BcsA-B complex [2]", "value": "about 20%"}]}
{"molecule": "CC(=O)N[C@H]1[C@@H](OP(=O)(O)OP(=O)(O)OC[C@H]2O[C@@H](n3ccc(=O)[nH]c3=O)[C@H](O)[C@@H]2O)O[C@H](CO)[C@@H](O)[C@@H]1O", "note": "[UDP-N-acetyl glucosamine]", "values": [{"measurement": "residual activity with alternative substrate as only carbohydrate source, relative to UDP-Glc", "setting": "Rs BcsA-B complex [2]", "value": "about 20%"}]}
{"molecule": "CC(=O)N[C@H]1[C@@H](OP(=O)(O)OP(=O)(O)OC[C@H]2O[C@@H](n3ccc(=O)[nH]c3=O)[C@H](O)[C@@H]2O)O[C@H](CO)[C@@H](O)[C@@H]1O", "note": "[UDP-NAG, UDP-N-acetyl glucosamine]", "values": [{"measurement": "inhibition of polymer synthesis by alternative UDP-sugars", "setting": "[3]", "value": "concentration-dependent inhibition"}, {"measurement": "reduction of the apparent reaction rate (inhibition)", "setting": "[3]", "value": 20, "unit": "%"}]}
{"molecule": "O=C(O)[C@H]1O[C@H](OP(=O)(O)OP(=O)(O)OC[C@H]2O[C@@H](n3ccc(=O)[nH]c3=O)[C@H](O)[C@@H]2O)[C@H](O)[C@@H](O)[C@@H]1O", "note": "[UDP-glucuronic acid]", "values": [{"measurement": "residual activity with alternative substrate as only carbohydrate source, relative to UDP-Glc", "setting": "Rs BcsA-B complex [2]", "value": "about 20%"}]}
{"molecule": "B1", "values": [{"measurement": "effect on accumulation of HMW cellulose", "setting": "Rs BcsA-B complex [1]; [4]", "value": "prevents the accumulation of HMW cellulose"}, {"measurement": "effect on BcsA-B's apparent reaction rate", "setting": "Rs BcsA-B complex [2]; [4]", "value": "does not change"}]}
